Where “and” joins values, the source holds several entries; their conditions need not be identical. Identical values can stand only once.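 Briefly, cells in 96-well plates were exposed to five compound concentrations for 48 h, and endpoints were estimated by linear interpolation. GI50 = concentration required for 50% inhibition of growth. TGI marks complete inhibition of growth.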
Assays:
Assay in all cases: growth of human tumour cells (NCI), 48 h
[1] = tested on: U251 CNS
[2] = tested on: SF-295 CNS
[3] = tested on: CAKI-1 renal
[4] = tested on: HT29 colon
[5] = tested on: EKVX NSCLC
[6] = tested on: HS 578T breast
[7] = tested on: LOX IMVI melanoma
[8] = tested on: HCT-116 colon
[9] = tested on: IGROV1 ovarian
[10] = tested on: RXF 393 renal

| SMILES | GI50 [1] [µM] | TGI [1] [µM] | GI50 [2] [µM] | TGI [2] [µM] | GI50 [3] [µM] | TGI [3] [µM] | GI50 [4] | TGI [4] | GI50 [5] [µM] | TGI [5] [µM] | GI50 [6] [µM] | TGI [6] [µM] | GI50 [7] [µM] | TGI [7] [µM] | GI50 [8] [µM] | GI50 [9] [µM] | TGI [9] [µM] | GI50 [10] [µM] | TGI [10] [µM] | TGI [8] [µM] |
| --- | --- | --- | --- | --- | --- | --- | --- | --- | --- | --- | --- | --- | --- | --- | --- | --- | --- | --- | --- | --- |
| CCCCCCCCCCN1CCC(N2CCCCC2)CC1 | 1.51 | 4.47 | 1.96 | 4.2 | 1.66 | 3.94 | 0.606 µM | 4.33 µM | 4.37 | 18.3 | 2.06 | 6.25 | 1.23 | 2.47 | 1.27 | 1.66 | 4.52 | 2.01 | 7.15 | – |
| COc1ccc(/C=C(/c2ccccc2)[N+](=O)[O-])cc1 | 1.61 | 3.21 | 2.29 | 5.22 | 1.55 | 3.28 | 2.04 µM | 11.3 µM | 1.73 | 3.52 | 2.4 | 7.7 | 1.47 | 2.89 | 1.03 | 1.27 | 2.67 | 1.35 | 2.78 | 2.29 |
| Cc1ncc([N+](=O)[O-])n1CCNS(=O)(=O)CCCn1ncnc1[N+](=O)[O-] | – | > 100 | – | > 100 | – | > 100 | – | > 100 µM | – | > 100 | – | > 100 | – | > 100 | – | – | > 100 | – | > 100 | > 100 |
| O=[N+]([O-])c1ccc(CSCc2ccc(Cl)cc2)cc1 | – | > 100 | – | > 100 | – | > 100 | – | > 100 µM | – | > 100 | – | > 100 | – | > 100 | – | – | > 100 | – | > 100 | > 100 |
| C/C(=N\NC(=S)N1CC2CCC(CC2)C1)c1ccccn1 | 0.0473 | 1.19 | 0.178 | 2.08 | 0.27 | 3.89 | < 0.014 µM | 1.67 µM | 0.0322 | 1.16 | 0.226 | 3.87 | 0.0428 | 1.81 | < 0.01 | < 0.01 | 2.29 | 0.226 | 1.3 | 1.15 |
| CC(O)CC(O)(C(F)(F)F)C(F)(F)F (stereo not drawn) | – | > 10 | – | > 10 | – | > 10 | – | > 10 µM | – | > 10 | – | > 10 | – | > 10 | – | – | > 10 | – | > 10 | > 10 |
| O=c1[nH]c(=O)n([C@H]2CCCO2)cc1F | > 4570 | > 5000 | > 4530 | > 5000 | 2100 | > 5000 | 1370 µM | > 5000 µM | > 2060 | > 5000 | – | > 4650 | 1120 | > 5000 | 1020 | 2270 | > 5000 | 1060 | > 5000 | > 5000 |
| O=C(NCc1ccc(S(=O)(=O)c2cc(F)cc(F)c2)cc1)c1ccc2nccn2c1 | 6.01 | > 56.7 | 15.8 | > 95.3 | > 43.3 | > 100 | 0.0885 µM | > 100 µM | 23.3 | > 100 | 20.5 | 80.1 | > 33.7 | > 66.8 | < 0.01 | 12.1 | > 80.4 | > 44.8 | > 72.4 | > 100 |
| COC(=O)CCC1=C(CC(=O)OC)C(C)=N/C1=C\c1[nH]c(-c2ccc[nH]2)cc1OC | 2.48 | 12.6 | 3.25 | 15.1 | 3.07 | 11.6 | 0.557 µM | 10.3 µM | 5.61 | 25.3 | 4.09 | 18.7 | 0.788 | 3.11 | 1.36 | 4.21 | 28.6 | 2.15 | 9.56 | 11.5 |
| CCCCCCCCCCCCOC1C(C(CC(=O)NCCN2CCCC2)NS(=O)(=O)c2cc(Cl)cc(Cl)c2)OC2OC(C)(C)OC21 (stereo not drawn) | 1.92 | 3.58 | 1.9 | 4.69 | 1.79 | 3.4 | 1.76 µM and 1.31 µM | 3.45 µM and 2.85 µM | 1.87 | 3.49 | 2.23 | 4.16 | 1.9 | 3.5 | 1.85 | 1.95 | 3.6 | 2.2 | 4.72 | 4.78 |
| O=C(N/N=C/c1ccc([N+](=O)[O-])o1)c1ccc(O)cc1 | 5.17 | > 100 | 4.26 | > 100 | 7.26 | > 100 | 5.88 µM | > 100 µM | 8.46 | 42.9 | 21.7 | > 100 | 2.15 | 16.9 | 3.63 | 5.19 | 23.1 | 12.9 | 73.8 | 12 |
| CC/C=C/C/C=C/C/C=C/C/C=C/C/C=C/C/C=C/CCC(=O)Nc1ccn([C@@H]2O[C@H](CO)[C@@H](O)C2(F)F)c(=O)n1 | 0.0331 | 18.2 | 0.11 | 19.8 | 0.0341 | 14.8 | 0.138 µM | 19.5 µM | 6.14 | > 58.9 | 46.4 | > 76.9 | 0.0512 | 0.832 | 0.0873 | 4.07 | 30.7 | 0.169 | 18.3 | 29.8 |

Reference: PubChem BioAssay (NCI)
